Reference: US20130116277A1, “ALDO-KETO REDUCTASE SUBFAMILY 1C3 (AKR1C3) INHIBITORS” (priority 2007, published 2013)
“And” between values parts separate entries of the source, which are not always exact repeats. Equal entries are not always repeated. Where two headings read alike, the source gives them in different places. Each block holds one compound with its values, some of them ahead of it.

Tests used:
[1] = target: T1, AKR1C3 (Homo sapiens, UniProt P42330)
T1 sequence (P42330 1-323): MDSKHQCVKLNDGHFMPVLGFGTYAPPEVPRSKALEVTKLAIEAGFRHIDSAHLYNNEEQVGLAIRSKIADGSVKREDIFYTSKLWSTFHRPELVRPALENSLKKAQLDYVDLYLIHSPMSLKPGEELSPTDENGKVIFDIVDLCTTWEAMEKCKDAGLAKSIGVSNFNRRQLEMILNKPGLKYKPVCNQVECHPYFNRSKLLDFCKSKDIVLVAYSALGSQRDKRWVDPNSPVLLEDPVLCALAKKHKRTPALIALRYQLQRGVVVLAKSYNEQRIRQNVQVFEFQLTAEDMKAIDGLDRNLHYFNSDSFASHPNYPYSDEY

[2] = target: T1, AKR1C3; conditions: 100 nM androstenedione, 24 hrs, LC-MS/MS (FIG. 2)
[3] = Liver microsome incubation (HLM Phase I and Phase I + II), LC-MS/MS; format: in vitro ADME, human; conditions: for microsomal CLint: human, human liver microsomes
Protocol: Stock solutions of prespective AKR1C3 inhibitors were prepared in DMSO at 5 mM and were incubated with liver microsomes (0.1 mg/mL). Incubations were conducted at 37° C. in a shaking water bath for 10 minutes (microsomes). Incubation durations were selected based on time course study (microsomes) or published literature (recombinant enzymes). Prepared samples were analyzed using LC-MS/MS.

[4] = target: T2, ER-α (Homo sapiens, UniProt P03372); experiment: ER-α ligand binding domain competitive binding with [3H]Estradiol
T2 sequence (P03372 311-547 limits assumed): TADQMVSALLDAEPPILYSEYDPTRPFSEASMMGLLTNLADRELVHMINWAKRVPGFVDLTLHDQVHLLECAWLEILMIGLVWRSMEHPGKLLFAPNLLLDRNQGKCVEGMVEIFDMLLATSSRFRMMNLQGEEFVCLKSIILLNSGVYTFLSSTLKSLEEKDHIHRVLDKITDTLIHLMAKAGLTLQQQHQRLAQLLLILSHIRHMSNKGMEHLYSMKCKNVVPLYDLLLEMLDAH

[5] = target: ER-β (Homo sapiens, UniProt Q92731); experiment: ER-β ligand binding domain competitive binding with [3H]Estradiol
ER-β, sequence (Q92731 264-498 limits assumed, species assumed): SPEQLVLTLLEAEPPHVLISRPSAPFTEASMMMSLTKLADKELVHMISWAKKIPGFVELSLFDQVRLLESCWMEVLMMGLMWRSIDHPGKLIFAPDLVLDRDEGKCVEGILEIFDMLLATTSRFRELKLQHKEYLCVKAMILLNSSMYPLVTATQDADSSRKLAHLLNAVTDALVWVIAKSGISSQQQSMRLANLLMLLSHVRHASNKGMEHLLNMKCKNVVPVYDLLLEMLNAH

[6] = target: T3, ER-alpha (Homo sapiens, UniProt P03372); experiment: ER-alpha transactivation (ERE-LUC luciferase) in HEK-293 cells; format: cell-based;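 further: HEK-293 cells co-transfected with an ER-alpha expression plasmid, an ERE-driven firefly luciferase reporter and a CMV Renilla control, with the firefly signal normalized to Renilla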
T3 construct: expressed in transfected cells; host or cells: HEK-293
T3 sequence (P03372 1-595): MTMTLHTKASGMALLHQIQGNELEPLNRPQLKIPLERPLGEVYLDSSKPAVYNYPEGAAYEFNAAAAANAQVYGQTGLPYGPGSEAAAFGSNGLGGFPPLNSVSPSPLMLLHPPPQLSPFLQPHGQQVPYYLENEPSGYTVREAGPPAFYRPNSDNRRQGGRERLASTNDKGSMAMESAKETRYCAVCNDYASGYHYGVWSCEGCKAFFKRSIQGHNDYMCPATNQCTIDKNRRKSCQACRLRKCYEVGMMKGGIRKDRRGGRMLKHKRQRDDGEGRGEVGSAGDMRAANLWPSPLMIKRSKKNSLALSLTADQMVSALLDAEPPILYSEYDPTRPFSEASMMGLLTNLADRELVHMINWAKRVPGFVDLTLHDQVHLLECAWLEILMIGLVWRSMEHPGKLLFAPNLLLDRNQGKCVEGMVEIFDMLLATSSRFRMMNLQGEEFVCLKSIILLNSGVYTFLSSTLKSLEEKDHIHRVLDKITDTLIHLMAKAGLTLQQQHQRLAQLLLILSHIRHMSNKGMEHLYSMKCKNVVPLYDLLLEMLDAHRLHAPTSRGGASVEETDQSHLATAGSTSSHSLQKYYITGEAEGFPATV

[7] = target: T4, ER-beta (Homo sapiens, UniProt Q92731); experiment: ER-beta transactivation (ERE-LUC luciferase) in HEK-293 cells; format: cell-based;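 further: HEK-293 cells transiently transfected with an ER-β expression plasmid and ERE-LUC reporter, firefly luciferase read-out normalized to co-transfected Renilla luciferase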
T4 construct: expressed in transfected cells; host or cells: HEK-293
T4 sequence (Q92731 whole entry, species assumed): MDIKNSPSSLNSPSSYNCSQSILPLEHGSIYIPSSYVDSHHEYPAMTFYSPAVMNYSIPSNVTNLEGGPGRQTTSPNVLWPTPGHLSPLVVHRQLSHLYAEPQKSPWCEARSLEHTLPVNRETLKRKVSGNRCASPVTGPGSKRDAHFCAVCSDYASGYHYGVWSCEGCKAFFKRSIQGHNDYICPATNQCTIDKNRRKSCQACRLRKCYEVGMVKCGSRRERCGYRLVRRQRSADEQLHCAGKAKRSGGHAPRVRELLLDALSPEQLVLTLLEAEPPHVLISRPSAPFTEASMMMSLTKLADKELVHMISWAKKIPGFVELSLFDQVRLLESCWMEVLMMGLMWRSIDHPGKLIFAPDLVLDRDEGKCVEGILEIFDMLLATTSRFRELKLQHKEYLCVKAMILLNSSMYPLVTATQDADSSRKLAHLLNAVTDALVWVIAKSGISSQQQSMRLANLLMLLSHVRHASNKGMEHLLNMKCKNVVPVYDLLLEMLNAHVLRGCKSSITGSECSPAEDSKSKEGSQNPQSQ

[8] = target: T1, AKR1C3; experiment: cell-based
[9] = target: T1, AKR1C3; experiment: Purified AKR1C3 enzyme assay, [14C]-A'dione to testosterone, TLC based; format: biochemical; set-up: GST (N); made in house; host or cells: bacterial culture, IPTG induced (E. coli BL21-DE3 is named only for the crystallography preparation)
Protocol: Perkin Elmer; […] American Radiolabeled Chemicals, St. Louis, Mo.). The reaction was stopped by the addition of 400 μl ethyl acetate, vortexed, and spun for […] at 2000 rpm. The upper layer was transferred to a new tube and air dried. The pellet was resuspended in 25 μl of methanol, spotted on TLC plates and fractionated in TLC chamber with 3:1 chloroform:ethyl acetate. Once the mobile phase reached the top, the plates were dried and exposed to a phosphoimager screen overnight. […] Perkin Elmer) was incubated at 37° C. for 60 min. The reaction was stopped by the addition of 400 μl ethyl acetate, vortexed, and spun for […] at 2000 rpm. The upper layer was transferred to a new tube and air dried. The pellet was resuspended in 25 μl of methanol, spotted on TLC plates and fractionated in TLC chamber with 3:1 chloroform:ethyl acetate. Once the mobile phase reached the top, the plates were dried and exposed to a phosphoimager screen overnight.

Compound: COc1ccc(C=CC(=O)O)cc1OC [3,4,dimethoxy cinnamic acid]
- IC50 [1]: > 10000 nM

- Inhibition of AKR1C3 dependent conversion of androstenedione to testosterone [2]: potently inhibited
Compound: NC(=O)c1ccc(-n2cc(-c3ccc(C(F)(F)F)c(F)c3)c3cc(O)ccc3c2=O)cc1 [Compound 215, 4-(4-(3-fluoro-4-(trifluoromethyl)phenyl)-6-hydroxy-1-oxoisoquinolin-2(1H)-yl)benzamide]

- HLM Phase I CLint ([3]; HLM Phase I): 0.8 µL/min/mg
- HLM Phase I + II CLint ([3]; HLM Phase I + II): 19.1 µL/min/mg
- HLM Phase I + II T-1/2 ([3]; HLM Phase I + II): 40 min and 36.12 min
- microsomal CLint ([3]; HLM Phase I + II, read-out: HLM Phase I + II CLint): 17 µL/min/mg
- microsomal CLint ([3]; HLM Phase I, read-out: HLM Phase I CLint): < 1 µL/min/mg
- Ki [4]: > 1510 nM
- Ki [5]: 157 nM
- EC50 ([6]; agonist mode, drug alone, read-out: Agonist ER-α): > 10000 nM
- IC50 ([6]; antagonist mode, in combination with estradiol, read-out: Antagonist ER-α): > 10000 nM
- EC50 ([7]; agonist mode, drug alone, read-out: Agonist ER-β): > 10000 nM
- IC50 ([7]; antagonist mode, in combination with estradiol, read-out: Antagonist ER-β): 677 nM
- IC50 [8]: 451 nM
- inhibition at 10 µM ([9]; 10 μM inhibitor, purified AKR1C3 TLC based enzyme assay, read-out: AKR1C3 inhibition at 10 μM): 52%
- inhibition at 10 µM ([9]; read-out: % inhibition from control HSD-5 (10 uM)): 52%
Compound: O=c1c2ccc(O)cc2c(-c2ccc(C(F)(F)F)cc2)cn1-c1ccc(O)cc1 [Compound 13, 6-hydroxy-2-(4-hydroxyphenyl)-4-(4-(trifluoromethyl)phenyl)isoquinolin-1(2H)-one]
